Reference: the supplement of paper PMC5662764
± gives the standard deviation of the averaged measurements.

What was measured:
Test in all cases: normalised growth rate inhibition (GR value) relative to DMSO control (GR (1 = untreated growth, 0 = cytostasis, <0 = cytotoxic)); higher = less growth inhibition
Conditions in all cases: 72 h
MCF10A = test system: MCF10A
Procedure: (§1)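 Breast cancer cell lines (BT-20, Hs 578T, MCF 10A, MCF7, MDA-MB-231, SK-BR-3) were plated in 384-well plates and treated 24 h later with drugs at six concentrations (0.04-10 µM). Viable cells were counted by Hoechst/dead-cell-stain imaging at 0 and 72 h. Counts were normalised to DMSO controls on the same plate to give the relative cell count and the growth-rate inhibition (GR) value; technical plate triplicates were averaged for each biological replicate.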

HS578T = test system: HS578T
Procedure: as §1

MDAMB231 = test system: MDAMB231
Procedure: as §1

SKBR3 = test system: SKBR3
Procedure: as §1

BT20 = test system: BT20
Procedure: as §1

MCF7 = test system: MCF7
Procedure: as §1

| Compound | normalised growth rate inhibition (MCF10A; 0.04 µM) | normalised growth rate inhibition (MCF10A; 0.12 µM) | normalised growth rate inhibition (MCF10A; 0.37 µM) | normalised growth rate inhibition (MCF10A; 1.11 µM) | normalised growth rate inhibition (MCF10A; 3.33 µM) | normalised growth rate inhibition (MCF10A; 10 µM) | normalised growth rate inhibition (HS578T; 0.04 µM) | normalised growth rate inhibition (HS578T; 0.12 µM) | normalised growth rate inhibition (HS578T; 0.37 µM) | normalised growth rate inhibition (HS578T; 1.11 µM) | normalised growth rate inhibition (HS578T; 3.33 µM) | normalised growth rate inhibition (HS578T; 10 µM) | normalised growth rate inhibition (MDAMB231; 0.04 µM) | normalised growth rate inhibition (MDAMB231; 0.12 µM) | normalised growth rate inhibition (MDAMB231; 0.37 µM) | normalised growth rate inhibition (MDAMB231; 1.11 µM) | normalised growth rate inhibition (MDAMB231; 3.33 µM) | normalised growth rate inhibition (MDAMB231; 10 µM) | normalised growth rate inhibition (SKBR3; 0.04 µM) | normalised growth rate inhibition (SKBR3; 0.12 µM) | normalised growth rate inhibition (SKBR3; 0.37 µM) | normalised growth rate inhibition (SKBR3; 1.11 µM) | normalised growth rate inhibition (SKBR3; 3.33 µM) | normalised growth rate inhibition (SKBR3; 10 µM) | normalised growth rate inhibition (BT20; 0.04 µM) | normalised growth rate inhibition (BT20; 0.12 µM) | normalised growth rate inhibition (BT20; 0.37 µM) | normalised growth rate inhibition (BT20; 1.11 µM) | normalised growth rate inhibition (BT20; 3.33 µM) | normalised growth rate inhibition (BT20; 10 µM) | normalised growth rate inhibition (MCF7; 0.04 µM) | normalised growth rate inhibition (MCF7; 0.12 µM) | normalised growth rate inhibition (MCF7; 0.37 µM) | normalised growth rate inhibition (MCF7; 1.11 µM) | normalised growth rate inhibition (MCF7; 3.33 µM) | normalised growth rate inhibition (MCF7; 10 µM) |
| --- | --- | --- | --- | --- | --- | --- | --- | --- | --- | --- | --- | --- | --- | --- | --- | --- | --- | --- | --- | --- | --- | --- | --- | --- | --- | --- | --- | --- | --- | --- | --- | --- | --- | --- | --- | --- |
| N#CCNC(=O)c1ccc(-c2ccnc(Nc3ccc(N4CCOCC4)cc3)n2)cc1 [CYT387] | 0.959 ± 0.023 | 0.924 ± 0.032 | 0.868 ± 0.038 | 0.799 ± 0.047 | 0.649 ± 0.1 | 0.185 ± 0.11 | 0.931 ± 0.031 | 0.851 ± 0.022 | 0.762 ± 0.024 | 0.638 ± 0.043 | 0.447 ± 0.12 | 0.046 ± 0.14 | 0.859 ± 0.059 | 0.777 ± 0.053 | 0.678 ± 0.087 | 0.527 ± 0.18 | 0.36 ± 0.28 | -0.112 ± 0.2 | 0.841 ± 0.15 | 0.8 ± 0.16 | 0.789 ± 0.12 | 0.687 ± 0.12 | 0.509 ± 0.11 | 0.0674 ± 0.037 | 0.926 ± 0.072 | 0.871 ± 0.038 | 0.837 ± 0.083 | 0.748 ± 0.046 | 0.576 ± 0.073 | 0.0633 ± 0.1 | 0.912 ± 0.024 | 0.896 ± 0.098 | 0.83 ± 0.092 | 0.628 ± 0.083 | 0.332 ± 0.2 | 0.0654 ± 0.039 |
| CS(=O)(=O)N1CCN(Cc2cc3nc(-c4cccc5[nH]ncc45)nc(N4CCOCC4)c3s2)CC1 [GDC-0941] | 0.869 ± 0.15 | 0.792 ± 0.18 | 0.625 ± 0.21 | 0.427 ± 0.14 | 0.289 ± 0.087 | 0.102 ± 0.038 | 0.779 ± 0.032 | 0.675 ± 0.031 | 0.568 ± 0.088 | 0.466 ± 0.1 | 0.408 ± 0.096 | 0.263 ± 0.077 | 0.784 ± 0.092 | 0.797 ± 0.069 | 0.715 ± 0.011 | 0.676 ± 0.056 | 0.644 ± 0.053 | 0.372 ± 0.1 | 0.384 ± 0.11 | 0.283 ± 0.088 | 0.131 ± 0.099 | 0.0555 ± 0.16 | 0.00405 ± 0.15 | -0.0817 ± 0.19 | 0.717 ± 0.053 | 0.689 ± 0.067 | 0.502 ± 0.17 | 0.258 ± 0.19 | 0.0678 ± 0.098 | -0.056 ± 0.052 | 0.331 ± 0.1 | 0.176 ± 0.079 | 0.0196 ± 0.047 | -0.00416 ± 0.0071 | -0.0358 ± 0.013 | -0.081 ± 0.069 |
| COc1cc(N2CCC(C(N)=O)CC2)ccc1Nc1nc(N)c(Cl)c(Nc2ccccc2S(=O)(=O)C(C)C)n1 [HG-5-88-01] | 0.933 ± 0.075 | 0.879 ± 0.09 | 0.766 ± 0.14 | 0.709 ± 0.16 | 0.627 ± 0.2 | 0.452 ± 0.11 | 0.942 ± 0.016 | 0.933 ± 0.04 | 0.885 ± 0.015 | 0.8637 ± 0.0081 | 0.839 ± 0.022 | 0.664 ± 0.034 | 0.794 ± 0.12 | 0.861 ± 0.12 | 0.791 ± 0.11 | 0.796 ± 0.14 | 0.783 ± 0.17 | 0.451 ± 0.089 | 0.548 ± 0.13 | 0.691 ± 0.1 | 0.678 ± 0.073 | 0.699 ± 0.08 | 0.641 ± 0.17 | 0.133 ± 0.15 | 0.747 ± 0.087 | 0.921 ± 0.066 | 0.937 ± 0.039 | 0.887 ± 0.022 | 0.846 ± 0.048 | 0.404 ± 0.013 | 0.635 ± 0.082 | 0.602 ± 0.04 | 0.493 ± 0.081 | 0.364 ± 0.071 | 0.208 ± 0.11 | -0.0672 ± 0.054 |
| CNC(=O)c1ccc(Nc2cc(Nc3ccccc3S(=O)(=O)C(C)C)c3cc[nH]c3n2)nc1 [HG-5-113-01] | 0.968 ± 0.013 | 0.92 ± 0.036 | 0.851 ± 0.034 | 0.713 ± 0.031 | 0.312 ± 0.16 | -0.0419 ± 0.062 | 0.9393 ± 0.0065 | 0.9 ± 0.013 | 0.77 ± 0.043 | 0.443 ± 0.17 | 0.109 ± 0.13 | -0.0329 ± 0.066 | 0.969 ± 0.058 | 0.888 ± 0.068 | 0.705 ± 0.12 | 0.35 ± 0.19 | 0.123 ± 0.089 | -0.0611 ± 0.15 | 0.875 ± 0.062 | 0.798 ± 0.16 | 0.514 ± 0.3 | 0.0629 ± 0.15 | -0.121 ± 0.069 | -0.148 ± 0.12 | 0.953 ± 0.041 | 0.8835 ± 0.0077 | 0.785 ± 0.069 | 0.601 ± 0.057 | 0.295 ± 0.051 | -0.158 ± 0.11 | 0.866 ± 0.069 | 0.718 ± 0.18 | 0.399 ± 0.21 | 0.163 ± 0.11 | 0.064 ± 0.018 | -0.222 ± 0.1 |
| COc1cc(OC)cc(-c2ccc3ncc4ccc(=O)n(-c5ccc(N6CCNCC6)c(C(F)(F)F)c5)c4c3c2)c1 [JW-7-24-1] | 0.986 ± 0.034 | 0.986 ± 0.044 | 0.952 ± 0.069 | 0.911 ± 0.11 | 0.84 ± 0.15 | 0.176 ± 0.17 | 0.929 ± 0.017 | 0.89 ± 0.039 | 0.765 ± 0.034 | 0.581 ± 0.029 | 0.384 ± 0.037 | -0.198 ± 0.14 | 0.823 ± 0.12 | 0.859 ± 0.088 | 0.754 ± 0.09 | 0.624 ± 0.12 | 0.543 ± 0.11 | -0.122 ± 0.17 | 0.615 ± 0.034 | 0.695 ± 0.042 | 0.591 ± 0.047 | 0.457 ± 0.038 | 0.273 ± 0.041 | -0.224 ± 0.14 | 0.797 ± 0.057 | 0.876 ± 0.078 | 0.822 ± 0.08 | 0.755 ± 0.18 | 0.61 ± 0.25 | -0.0316 ± 0.17 | 0.607 ± 0.09 | 0.551 ± 0.07 | 0.373 ± 0.12 | 0.236 ± 0.08 | 0.139 ± 0.078 | -0.135 ± 0.0036 |
| NC1(c2ccc(-c3nc4ccn5c(=O)[nH]nc5c4cc3-c3ccccc3)cc2)CCC1 [MK-2206] | 0.99 ± 0.038 | 0.972 ± 0.036 | 0.705 ± 0.22 | 0.892 ± 0.067 | 0.833 ± 0.082 | 0.429 ± 0.09 | 0.8934 ± 0.0036 | 0.803 ± 0.035 | 0.577 ± 0.21 | 0.665 ± 0.064 | 0.638 ± 0.053 | 0.458 ± 0.29 | 0.968 ± 0.039 | 0.904 ± 0.039 | 0.821 ± 0.05 | 0.806 ± 0.061 | 0.757 ± 0.051 | 0.391 ± 0.35 | 0.761 ± 0.12 | 0.603 ± 0.084 | 0.484 ± 0.06 | 0.429 ± 0.048 | 0.283 ± 0.059 | -0.0652 ± 0.015 | 0.974 ± 0.087 | 0.902 ± 0.12 | 0.678 ± 0.13 | 0.583 ± 0.17 | 0.453 ± 0.2 | 0.08 ± 0.29 | 0.616 ± 0.12 | 0.502 ± 0.086 | 0.278 ± 0.096 | 0.291 ± 0.12 | 0.176 ± 0.093 | -0.104 ± 0.14 |
| O=c1cc(N2CCOCC2)oc2c(-c3cccc4c3sc3ccccc34)cccc12 [NU-7441] | 1.022 ± 0.0064 | 1.001 ± 0.0035 | 0.9817 ± 0.005 | 0.957 ± 0.015 | 0.894 ± 0.034 | 0.357 ± 0.3 | 0.974 ± 0.01 | 0.9337 ± 0.0078 | 0.911 ± 0.022 | 0.789 ± 0.037 | 0.612 ± 0.02 | 0.144 ± 0.094 | 1.02 ± 0.043 | 0.955 ± 0.046 | 0.892 ± 0.085 | 0.843 ± 0.075 | 0.579 ± 0.11 | 0.147 ± 0.16 | 1.04 ± 0.036 | 0.957 ± 0.035 | 0.868 ± 0.061 | 0.714 ± 0.15 | 0.644 ± 0.082 | 0.199 ± 0.077 | 1.06 ± 0.025 | 1.02 ± 0.044 | 0.998 ± 0.035 | 0.958 ± 0.049 | 0.853 ± 0.098 | 0.263 ± 0.17 | 1 ± 0.055 | 0.955 ± 0.024 | 0.937 ± 0.053 | 0.892 ± 0.1 | 0.747 ± 0.11 | 0.241 ± 0.28 |
